Assay results: patent US20250011365A1, “ECHINOCANDIN-BASED DRUG, AND PREPARATION METHOD THEREFOR AND USE THEREOF” (Shenzhen Sungening Biological Co., Ltd, priority 2023, published 2025)
Values after ≈ are worked out from the molar mass of the structure shown. Numbered stars: 1 amine (or outer) side, 2 acyl side, 3 side chain; on linkers, the order of the positions; unused ones are H or OH. Bridge positions count the residues as written; N and C are the ends. Square brackets hold non-standard residues; d marks the D form. Peptide text beside a SMILES is read from it. * marks the point of attachment. Orn(4R-OH,5R-OCH2CH2NMe3+) = C[N+](C)(C)CCO[C@@H](N[*:3])[C@H](O)C[C@H](N[*:1])C(=O)[*:2]; pTerphenylCO(4''-OnC5H11) = CCCCCOc1ccc(-c2ccc(-c3ccc(C(=O)*)cc3)cc2)cc1; hTyr(3S-OH,4S-OH) = N[C@H](C(=O)O)[C@H](O)[C@@H](O)c1ccc(O)cc1; X2 = CCCCCOc1ccc(C#Cc2ccc3cc(C(=O)*)ccc3c2)c(F)c1F; Pro(3S-OH,4S-Me) = C[C@H]1CN[C@H](C(=O)O)[C@H]1O; Hyp = O=C(O)[C@@H]1C[C@@H](O)CN1

Assays:
[1] = tested on: Aspergillus fumigatus ATCC 204305; assay: MEC assay, Aspergillus standard strain (CLSI M38-A2); assay type: cell-based; details: 21-26 h, 28° C.
Protocol: After gradient dilution of test compounds, an MIC assay was performed on a Candida standard strain, and an MEC assay was performed on an Aspergillus standard strain.
The colonies on the plate were covered with 0.85% physiological saline (1 mL) or sterile water (polysorbate 20 was added to a final concentration of 0.1%-0.01%). […] The resuspension of spore hyphae was transferred to a sterile test tube, and left to stand for 3-5 min to precipitate heavier particles. The homogeneous suspension on the upper layer was transferred to a new sterile test tube, and the tube was capped closely, and subjected to vortex shaking for 15 s (note: the suspension can produce an aerosol when the cap is reopened). The concentration of the suspension was adjusted to an OD value of 0.09-0.13 at 530 nm by using a spectrophotometer. […] Within 2 h after dilution, 100 μL of the diluted suspension was added to each well in a 96-well plate (the concentration of spores in the final drug sensitive plate should be 0.4×10^4-5×10^4 CFU/mL).
In order to accurately determine MEC value, vortex oscillation should not be allowed before reading the plate.

C. tropicalis ATCC 750 = assay: MIC assay, Candida standard strain (CLSI M27-A3); assay type: cell-based; details: ATCC750, 24 h, 35° C.
Protocol: (§1) After gradient dilution of test compounds, an MIC assay was performed on a Candida standard strain, and an MEC assay was performed on an Aspergillus standard strain. […] A cryopreserved strain was passaged at least 2 times. A single colony was picked and resuspended in a physiological saline or sterile water tube, and the tube was subjected to vortex shaking. The Candida suspension was adjusted to 0.5 McF (1×10^6-5×10^6 CFU/mL) at a wavelength of 530 nm by using a spectrophotometer. After being diluted 50 times with physiological saline, the Candida suspension was diluted 20 times with 1×RPMI 1640 broth (1×10^3-5×10^3 CFU/mL). 10 μL of the diluted Candida suspension was coated on an SDA plate for colony counting, with a range of about 10-50 single colonies. After a prepared drug sensitive plate was completely dissolved at room temperature, the Candida suspension was added to the 96-well plate by using a multi-channel pipettor at 100 μL/well. At this time, the concentration of Candida in each well should be 0.5×10^3-2.5×10^3 CFU/mL. A yeast-type fungus assay plate was placed in an incubator, and incubated for 24 h at 35° C. and 85% humidity, and then the MIC values were read. For echinocandin-based drugs, Aspergillus was incubated for 21-26 h at 28° C., and then the MEC results were read. Yeast-type fungi: A 96-well plate was attached with a disposable parafilm, shaken for uniformly mixing, and observed with naked eyes by using a plate reader microscope. […] Pictures were taken and saved by using an automated plate reader.

[2] = tested on: Candida albicans ATCC 90028; assay: MIC assay, Candida standard strain (CLSI M27-A3); assay type: cell-based; details: ATCC90028, 24 h, 35° C., >50% growth inhibition
Protocol: as §1

[3] = tested on: Candida albicans ATCC MYA-1023; assay: MIC assay, Candida standard strain (CLSI M27-A3); assay type: cell-based; details: 24 h, 35° C.
Protocol: as §1

C. krusei ATCC 6258 = assay: MIC assay, Candida standard strain (CLSI M27-A3); assay type: cell-based; details: Pichia kudriavzevii, ATCC6258; C. krusei ATCC 6258 (quality-control strain); 24 h, 35° C.
Protocol: as §1

[4] = tested on: Candida albicans ATCC 10231; assay: MIC assay, Candida standard strain (CLSI M27-A3); assay type: cell-based; details: ATCC10231, 24 h, 35° C., >50% growth inhibition
Protocol: as §1

[5] = tested on: Candida albicans ATCC 90029; assay: MIC assay, Candida standard strain (CLSI M27-A3); assay type: cell-based; details: ATCC90029, 24 h, 35° C.
Protocol: as §1

C. glabrata ATCC 15126 = assay: MIC assay, Candida standard strain (CLSI M27-A3); assay type: cell-based; details: Nakaseomyces glabratus, ATCC15126, 24 h, 35° C.
Protocol: as §1

[6] = tested on: Candida albicans ATCC MYA-574; assay: MIC assay, Candida standard strain (CLSI M27-A3); assay type: cell-based; details: 24 h, 35° C.
Protocol: as §1

[7] = tested on: Candida albicans ATCC 14053; assay: MIC assay, Candida standard strain (CLSI M27-A3); assay type: cell-based; details: ATCC14053, 24 h, 35° C.
Protocol: as §1

[8] = tested on: Candida albicans ATCC 64124; assay: MIC assay, Candida standard strain (CLSI M27-A3); assay type: cell-based; details: ATCC64124, 24 h, 35° C.
Protocol: as §1

[9] = tested on: Candida albicans ATCC MYA-4788; assay: MIC assay, Candida standard strain (CLSI M27-A3); assay type: cell-based; details: 24 h, 35° C.
Protocol: as §1

[10] = tested on: Candida albicans ATCC 18804; assay: MIC assay, Candida standard strain (CLSI M27-A3); assay type: cell-based; details: ATCC18804, 24 h, 35° C.
Protocol: as §1

[11] = tested on: Candida albicans ATCC 76485; assay: MIC assay, Candida standard strain (CLSI M27-A3); assay type: cell-based; details: ATCC76485, 24 h, 35° C.
Protocol: as §1

[12] = tested on: C. parapsilosis ATCC 22019; assay: MIC assay, Candida standard strain (CLSI M27-A3); assay type: cell-based; details: Lodderomyces parapsilosis, ATCC22019; C. parapsilosis ATCC 22019 (quality-control strain); 24 h, 35° C.
Protocol: as §1

[13] = tested on: Candida albicans ATCC MYA-2876; assay: MIC assay, Candida standard strain (CLSI M27-A3); assay type: cell-based; details: 24 h, 35° C.
Protocol: as §1

[14] = tested on: Candida albicans CICC 1943; assay: MIC assay, Candida standard strain (CLSI M27-A3); assay type: cell-based; details: CICC1943, 24 h, 35° C.
Protocol: as §1

[15] = tested on: Candida albicans ATCC MYA-427; assay: MIC assay, Candida standard strain (CLSI M27-A3); assay type: cell-based; details: 24 h, 35° C.
Protocol: as §1

[16] = tested on: Candida albicans CMCC 98001; assay: MIC assay, Candida standard strain (CLSI M27-A3); assay type: cell-based; details: CMCC98001, 24 h, 35° C.
Protocol: as §1

[17] = tested on: Pichia guilliermondii ATCC 6260; assay: MIC assay, yeast-type fungi (CLSI M27-A3); assay type: cell-based; details: Meyerozyma guilliermondii, ATCC6260, 24 h, 35° C.
Protocol: as §1

[18] = Study on pharmacokinetic properties in rats after intravenous injection; details: SD, rat, in vivo, 5 mg/kg
[19] = tested on: Cryptococcus neoformans ATCC 208821; assay: MIC assay, yeast-type fungi (CLSI M27-A3); assay type: cell-based; details: ATCC208821, 24 h, 35° C.

CCCCCOc1ccc(-c2ccc(-c3ccc(C(=O)N[C@H]4C[C@@H](O)[C@@H](OCC[N+](C)(C)C)NC(=O)[C@@H]5[C@@H](O)[C@@H](C)CN5C(=O)[C@H]([C@@H](C)O)NC(=O)[C@H]([C@H](O)[C@@H](O)c5ccc(O)cc5)NC(=O)[C@@H]5C[C@@H](O)CN5C(=O)[C@H]([C@@H](C)O)NC4=O)cc3)cc2)cc1 [Rezafungin, rezafungin, reference compound] ({pTerphenylCO(4''-OnC5H11)}-[Orn(4R-OH,5R-OCH2CH2NMe3+)]T[Hyp][hTyr(3S-OH,4S-OH)]T[Pro(3S-OH,4S-Me)]; lactam 1-C)
MEC [1]: ≤0.015 µg/mL
MIC (C. tropicalis ATCC 750): ≤ 0.015 µg/mL
MIC [2]: ≤ 0.015 µg/mL
MIC [3]: ≤ 0.015 µg/mL
MIC (C. krusei ATCC 6258): 0.03 µg/mL
MIC [4]: ≤ 0.015 µg/mL
MIC [5]: ≤ 0.015 µg/mL
MIC (C. glabrata ATCC 15126): 0.06 µg/mL
MIC [6]: ≤ 0.015 µg/mL
MIC [7]: ≤ 0.015 µg/mL
MIC [8]: ≤ 0.015 µg/mL
MIC [9]: ≤ 0.015 µg/mL
MIC [10]: ≤ 0.015 µg/mL
MIC [11]: ≤ 0.015 µg/mL
MIC [12]: 0.5 µg/mL
MIC [13]: ≤ 0.015 µg/mL
MIC [14]: ≤ 0.015 µg/mL
MIC [15]: ≤ 0.015 µg/mL
MIC [16]: ≤ 0.015 µg/mL
MIC [17]: 0.25 µg/mL
AUC(0-inf) [18]: 104000 ng·h/mL
AUC(0-t) [18]: 89000 ng·h/mL
Cmax [18]: 4750 ng/mL
MRT last [18]: 20.2 h
Vd [18]: 1.9 L/kg
clearance [18]: 0.8 mL/min/kg
half-life [18]: 27.5 h
MIC [19]: 16 µg/mL

CC[C@H](C)C[C@H](C)CCCCCCCCC(=O)N[C@H]1C[C@@H](O)[C@@H](NCCN)NC(=O)[C@@H]2[C@@H](O)CCN2C(=O)[C@H]([C@H](O)CCN)NC(=O)[C@H]([C@H](O)[C@@H](O)c2ccc(O)cc2)NC(=O)[C@@H]2C[C@@H](O)CN2C(=O)[C@H]([C@@H](C)O)NC1=O [Caspofungin, reference compound]
MEC [1]: 0.25 µg/mL
MIC (C. tropicalis ATCC 750): 0.06 µg/mL (≈ 0.0549 µM)
MIC [2]: 0.12 µg/mL (≈ 0.11 µM)
MIC [3]: 0.06 µg/mL (≈ 0.0549 µM)
MIC (C. krusei ATCC 6258): 0.25 µg/mL (≈ 0.229 µM)
MIC [4]: 0.12 µg/mL (≈ 0.11 µM)
MIC [5]: 0.06 µg/mL (≈ 0.0549 µM)
MIC (C. glabrata ATCC 15126): 0.12 µg/mL (≈ 0.11 µM)
MIC [6]: ≤ 0.015 µg/mL
MIC [7]: 0.03 µg/mL (≈ 0.0274 µM)
MIC [8]: 0.12 µg/mL (≈ 0.11 µM)
MIC [9]: 0.06 µg/mL (≈ 0.0549 µM)
MIC [10]: 0.06 µg/mL (≈ 0.0549 µM)
MIC [11]: 0.06 µg/mL (≈ 0.0549 µM)
MIC [12]: 0.5 µg/mL (≈ 0.457 µM)
MIC [13]: 0.06 µg/mL (≈ 0.0549 µM)
MIC [14]: 0.06 µg/mL (≈ 0.0549 µM)
MIC [15]: 0.12 µg/mL (≈ 0.11 µM)
MIC [16]: 0.06 µg/mL (≈ 0.0549 µM)
MIC [17]: 0.12 µg/mL (≈ 0.11 µM)
MIC [19]: 16 µg/mL (≈ 14.6 µM)

CCCCCOc1ccc(C#Cc2ccc3cc(C(=O)N[C@H]4C[C@@H](O)[C@@H](OCC[N+](C)(C)C)NC(=O)[C@@H]5[C@@H](O)[C@@H](C)CN5C(=O)[C@H]([C@@H](C)O)NC(=O)[C@H]([C@H](O)[C@@H](O)c5ccc(O)cc5)NC(=O)[C@@H]5C[C@@H](O)CN5C(=O)[C@H]([C@@H](C)O)NC4=O)ccc3c2)c(F)c1F [Example 8] (X2-[Orn(4R-OH,5R-OCH2CH2NMe3+)]T[Hyp][hTyr(3S-OH,4S-OH)]T[Pro(3S-OH,4S-Me)]; lactam 1-C)
MEC [1]: 0.03 µg/mL
MIC (C. tropicalis ATCC 750): ≤ 0.015 µg/mL
MIC [2]: ≤ 0.015 µg/mL
MIC [3]: ≤ 0.015 µg/mL
MIC (C. krusei ATCC 6258): 0.12 µg/mL
MIC [4]: 0.03 µg/mL
MIC [5]: ≤ 0.015 µg/mL
MIC (C. glabrata ATCC 15126): 0.06 µg/mL
MIC [6]: ≤ 0.015 µg/mL
MIC [7]: ≤ 0.015 µg/mL
MIC [8]: ≤ 0.015 µg/mL
MIC [9]: ≤ 0.015 µg/mL
MIC [10]: ≤ 0.015 µg/mL
MIC [11]: ≤ 0.015 µg/mL
MIC [12]: 0.5 µg/mL
MIC [13]: ≤ 0.015 µg/mL
MIC [14]: 0.03 µg/mL
MIC [15]: 0.03 µg/mL
MIC [16]: ≤ 0.015 µg/mL
MIC [17]: 0.25 µg/mL
MIC [19]: 8 µg/mL
